In the NIST ThermoML archive (doi:10.1021/je800218g):
± gives the expanded uncertainty stated by the source.

Assay: activity coefficient (dimensionless); of the first substance listed, at infinite dilution; xn = mol fraction of the nth substance listed
Conditions: Liquid, Chromatography, x1 = 0

Structure (SMILES)	activity coefficient (303.15 K)	activity coefficient (313.15 K)	activity coefficient (323.15 K)	activity coefficient (333.15 K)	activity coefficient (343.15 K)	activity coefficient (353.15 K)	activity coefficient (363.15 K)
ClC(Cl)Cl [trichloromethane] + CCn1cc[n+](C)c1.F[B-](F)(F)F	1.36 ± 0.14	1.38 ± 0.14	1.39 ± 0.14	1.41 ± 0.15	1.43 ± 0.15	1.46 ± 0.15	1.5 ± 0.15
ClC(Cl)(Cl)Cl [tetrachloromethane] + CCn1cc[n+](C)c1.F[B-](F)(F)F	4.31 ± 0.45	4.41 ± 0.46	4.56 ± 0.48	4.66 ± 0.49	4.8 ± 0.5	4.89 ± 0.51	4.98 ± 0.52
CCCCCCCCC [nonane] + CCn1cc[n+](C)c1.F[B-](F)(F)F	319 ± 34	294 ± 31	272 ± 29	254 ± 27	248 ± 26	235 ± 25	224 ± 24
CC#N [acetonitrile] + CCn1cc[n+](C)c1.F[B-](F)(F)F	0.892 ± 0.091	0.875 ± 0.09	0.853 ± 0.087	0.832 ± 0.085	0.814 ± 0.084	0.792 ± 0.082	0.769 ± 0.079
CCCCCCC [heptane] + CCn1cc[n+](C)c1.F[B-](F)(F)F	154 ± 16	138 ± 15	124 ± 13	111 ± 12	104 ± 11	96 ± 10	90.4 ± 9.5
C1=CCCCC1 [cyclohexene] + CCn1cc[n+](C)c1.F[B-](F)(F)F	21.8 ± 2.3	19.6 ± 2.1	16.6 ± 1.8	14.4 ± 1.5	12.8 ± 1.3	10.5 ± 1.1	9.13 ± 0.96
Cc1ccccc1C [1,2-dimethylbenzene] + CCn1cc[n+](C)c1.F[B-](F)(F)F	4.73 ± 0.5	4.69 ± 0.49	4.64 ± 0.49	4.58 ± 0.48	4.5 ± 0.47	4.41 ± 0.46	4.34 ± 0.46
C1COCCO1 [1,4-dioxane] + CCn1cc[n+](C)c1.F[B-](F)(F)F	1.35 ± 0.14	1.4 ± 0.14	1.42 ± 0.15	1.44 ± 0.15	1.47 ± 0.15	1.49 ± 0.15	1.51 ± 0.16
CCOC(C)=O [ethyl acetate] + CCn1cc[n+](C)c1.F[B-](F)(F)F	2.94 ± 0.31	2.92 ± 0.31	2.89 ± 0.3	2.87 ± 0.3	2.83 ± 0.3	2.79 ± 0.29	2.75 ± 0.29
CC(C)CC(C)(C)C [2,2,4-trimethylpentane] + CCn1cc[n+](C)c1.F[B-](F)(F)F	158 ± 17	143 ± 15	124 ± 13	112 ± 12	101 ± 11	85.8 ± 9	75.3 ± 7.9
CC(C)=O [acetone] + CCn1cc[n+](C)c1.F[B-](F)(F)F	1.23 ± 0.13	1.26 ± 0.13	1.27 ± 0.13	1.29 ± 0.13	1.31 ± 0.14	1.33 ± 0.14	1.33 ± 0.14
C=Cc1ccccc1 [styrene] + CCn1cc[n+](C)c1.F[B-](F)(F)F	3.38 ± 0.35	3.44 ± 0.36	3.49 ± 0.37	3.56 ± 0.37	3.62 ± 0.38	3.65 ± 0.38	3.73 ± 0.39
CCCCCC [hexane] + CCn1cc[n+](C)c1.F[B-](F)(F)F	101 ± 11	95.3 ± 10	90.6 ± 9.5	85.3 ± 9	77.4 ± 8.2	74.5 ± 7.8	69.5 ± 7.3
c1ccccc1 [benzene] + CCn1cc[n+](C)c1.F[B-](F)(F)F	2.13 ± 0.22	2.11 ± 0.22	2.09 ± 0.22	2.05 ± 0.21	2.02 ± 0.21	1.99 ± 0.21	1.96 ± 0.21
CC1CCCCC1 [methylcyclohexane] + CCn1cc[n+](C)c1.F[B-](F)(F)F	93 ± 9.8	79.7 ± 8.4	67.7 ± 7.1	58.9 ± 6.2	51.4 ± 5.4	43.3 ± 4.6	32.3 ± 3.4
Cc1ccc(C)cc1 [1,4-dimethylbenzene] + CCn1cc[n+](C)c1.F[B-](F)(F)F	5.41 ± 0.57	5.3 ± 0.56	5.14 ± 0.54	5.03 ± 0.53	4.96 ± 0.52	4.88 ± 0.51	4.76 ± 0.5
C1CCCCC1 [cyclohexane] + CCn1cc[n+](C)c1.F[B-](F)(F)F	70.5 ± 7.4	60.9 ± 6.4	49.7 ± 5.2	39.6 ± 4.2	31.2 ± 3.3	27.5 ± 2.9	21.9 ± 2.3
CCCCC [pentane] + CCn1cc[n+](C)c1.F[B-](F)(F)F	68.8 ± 7.2	62.5 ± 6.6	57.6 ± 6.1	53.9 ± 5.7	49 ± 5.2	45.7 ± 4.8	42.1 ± 4.4
CCCCCCCC [octane] + CCn1cc[n+](C)c1.F[B-](F)(F)F	216 ± 23	201 ± 21	187 ± 20	173 ± 18	158 ± 17	149 ± 16	140 ± 15
Cc1ccccc1 [toluene] + CCn1cc[n+](C)c1.F[B-](F)(F)F	3.68 ± 0.39	3.66 ± 0.38	3.62 ± 0.38	3.56 ± 0.37	3.52 ± 0.37	3.48 ± 0.37	3.4 ± 0.36
CCCCCCCCCC [decane] + CCn1cc[n+](C)c1.F[B-](F)(F)F	1110 ± 120	984 ± 100	861 ± 91	751 ± 79	643 ± 68	545 ± 58	456 ± 48
ClCCl [dichloromethane] + CCn1cc[n+](C)c1.F[B-](F)(F)F	1.12 ± 0.12	1.16 ± 0.12	1.21 ± 0.12	1.25 ± 0.13	1.32 ± 0.14	1.36 ± 0.14	1.39 ± 0.14
Cc1cccc(C)c1 [1,3-dimethylbenzene] + CCn1cc[n+](C)c1.F[B-](F)(F)F	5.88 ± 0.62	5.71 ± 0.6	5.57 ± 0.59	5.32 ± 0.56	5.17 ± 0.54	4.98 ± 0.52	4.83 ± 0.51
CCc1ccccc1 [ethylbenzene] + CCn1cc[n+](C)c1.F[B-](F)(F)F	6.49 ± 0.68	6.3 ± 0.66	6.11 ± 0.64	5.89 ± 0.62	5.58 ± 0.59	5.44 ± 0.57	5.31 ± 0.56
C1CCOC1 [tetrahydrofuran] + CCn1cc[n+](C)c1.F[B-](F)(F)F	1.87 ± 0.2	1.85 ± 0.19	1.83 ± 0.19	1.82 ± 0.19	1.8 ± 0.19	1.77 ± 0.18	1.74 ± 0.18
